In PubChem BioAssay AID2060900 (Molecular Pharmacology Branch, DTP, NCI, 2025):

test system: 521955-158-R2-J5-PDC complex spheroids, viability; assay: Anticancer human tumor 521955-158-R2-J5-PDC patient-derived pancreatic carcinoma cell line growth inhibition [RAS]; details: second compound 0.0316 µM; first compound 0.316 µM; hits give low values
Outline: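 Multi-cell-type spheroids: tumor cells plus HUVEC endothelial cells and mesenchymal stem cells. RAS-pathway inhibitors were combined with targeted agents, each dosed in half-log steps down from clinical Cmax, or from 10 microM when Cmax was unknown.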
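Also: spheroids also contain HUVEC endothelial cells and mesenchymal stem cells as stroma; compound exposure lasted seven days before the viability read.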

Compared with `Cc1nc(N2CCC3(CC2)COC(C)C3N)c(CO)nc1Sc1ccnc(N)c1Cl` (stereo unspecified) + C=CC(=O)N1CCN(c2nc(OCC3CCCN3C)nc3c(F)c(-c4nc(N)cc(C)c4C(F)(F)F)c(Cl)cc23)C(C)C1, `NC1c2ccccc2OC12CCN(c1cnc3c(N4CCCc5ncccc54)n[nH]c3n1)CC2` (stereo unspecified) + C=CC(=O)N1CCN(c2nc(OCC3CCCN3C)nc3c(F)c(-c4nc(N)cc(C)c4C(F)(F)F)c(Cl)cc23)C(C)C1 is lower in viability, T/C: 72.1% for the first, 69.1% for the second.

same assay, conditions: second compound 0.0316 µM; first compound 1 µM; hits give low values

Going from `CC1(O)CCCC1n1c(=O)c(C(F)F)cc2cnc(NC3CCN(S(C)(=O)=O)CC3)nc21` (stereo unspecified) + C=CC(=O)N1CCN(c2nc(OCC3CCCN3C)nc3c(F)c(-c4nc(N)cc(C)c4C(F)(F)F)c(Cl)cc23)C(C)C1 to `Cc1nc(N2CCC3(CC2)COC(C)C3N)c(CO)nc1Sc1ccnc(N)c1Cl` (stereo unspecified) + C=CC(=O)N1CCN(c2nc(OCC3CCCN3C)nc3c(F)c(-c4nc(N)cc(C)c4C(F)(F)F)c(Cl)cc23)C(C)C1, the viability, T/C falls from 96.4% to 71.6%.

Going from `CCC(CC)c1cc(NC2CCC(N)C2)n2nccc2n1` (stereo unspecified) + C=CC(=O)N1CCN(c2nc(OCC3CCCN3C)nc3c(F)c(-c4nc(N)cc(C)c4C(F)(F)F)c(Cl)cc23)C(C)C1 to `NC1c2ccccc2OC12CCN(c1cnc3c(N4CCCc5ncccc54)n[nH]c3n1)CC2` (stereo unspecified) + C=CC(=O)N1CCN(c2nc(OCC3CCCN3C)nc3c(F)c(-c4nc(N)cc(C)c4C(F)(F)F)c(Cl)cc23)C(C)C1, the viability, T/C falls from 152% to 61.5%.

Work on `CCN1CCN(Cc2ccc(Nc3ncc(F)c(-c4cc(F)c5nc(C)n(C(C)C)c5c4)n3)nc2)CC1` + C=CC(=O)N1CCN(c2nc(OCC3CCCN3C)nc3c(F)c(-c4nc(N)cc(C)c4C(F)(F)F)c(Cl)cc23)C(C)C1 yielded a viability, T/C of 98.4%.

same assay, conditions: second compound 0.0316 µM; first compound 3.16 µM; hits give low values

Compared with `CC1(O)CCCC1n1c(=O)c(C(F)F)cc2cnc(NC3CCN(S(C)(=O)=O)CC3)nc21` (stereo unspecified) + C=CC(=O)N1CCN(c2nc(OCC3CCCN3C)nc3c(F)c(-c4nc(N)cc(C)c4C(F)(F)F)c(Cl)cc23)C(C)C1, `Cc1nc(N2CCC3(CC2)COC(C)C3N)c(CO)nc1Sc1ccnc(N)c1Cl` (stereo unspecified) + C=CC(=O)N1CCN(c2nc(OCC3CCCN3C)nc3c(F)c(-c4nc(N)cc(C)c4C(F)(F)F)c(Cl)cc23)C(C)C1 is lower in viability, T/C: 108% for the first, 60.7% for the second.

Compared with `CCC(CC)c1cc(NC2CCC(N)C2)n2nccc2n1` (stereo unspecified) + C=CC(=O)N1CCN(c2nc(OCC3CCCN3C)nc3c(F)c(-c4nc(N)cc(C)c4C(F)(F)F)c(Cl)cc23)C(C)C1, `NC1c2ccccc2OC12CCN(c1cnc3c(N4CCCc5ncccc54)n[nH]c3n1)CC2` (stereo unspecified) + C=CC(=O)N1CCN(c2nc(OCC3CCCN3C)nc3c(F)c(-c4nc(N)cc(C)c4C(F)(F)F)c(Cl)cc23)C(C)C1 is higher in viability, T/C: 9.15% for the first, 65.3% for the second.

same assay, conditions: second compound 0.0316 µM; first compound 10 µM; hits give low values

Compared with `CC1(O)CCCC1n1c(=O)c(C(F)F)cc2cnc(NC3CCN(S(C)(=O)=O)CC3)nc21` (stereo unspecified) + C=CC(=O)N1CCN(c2nc(OCC3CCCN3C)nc3c(F)c(-c4nc(N)cc(C)c4C(F)(F)F)c(Cl)cc23)C(C)C1, `Cc1nc(N2CCC3(CC2)COC(C)C3N)c(CO)nc1Sc1ccnc(N)c1Cl` (stereo unspecified) + C=CC(=O)N1CCN(c2nc(OCC3CCCN3C)nc3c(F)c(-c4nc(N)cc(C)c4C(F)(F)F)c(Cl)cc23)C(C)C1 is higher in viability, T/C: 12.7% for the first, 56.9% for the second.

Going from `CCC(CC)c1cc(NC2CCC(N)C2)n2nccc2n1` (stereo unspecified) + C=CC(=O)N1CCN(c2nc(OCC3CCCN3C)nc3c(F)c(-c4nc(N)cc(C)c4C(F)(F)F)c(Cl)cc23)C(C)C1 to `NC1c2ccccc2OC12CCN(c1cnc3c(N4CCCc5ncccc54)n[nH]c3n1)CC2` (stereo unspecified) + C=CC(=O)N1CCN(c2nc(OCC3CCCN3C)nc3c(F)c(-c4nc(N)cc(C)c4C(F)(F)F)c(Cl)cc23)C(C)C1, the viability, T/C rises from 9.78% to 51.8%.

same assay, conditions: second compound 0.1 µM; first compound 0.00316 µM; hits give low values

With `CCN1CCN(Cc2ccc(Nc3ncc(F)c(-c4cc(F)c5nc(C)n(C(C)C)c5c4)n3)nc2)CC1` + C=CC(=O)N1CCN(c2nc(OCC3CCCN3C)nc3c(F)c(-c4nc(N)cc(C)c4C(F)(F)F)c(Cl)cc23)C(C)C1 the viability, T/C was 147%.

same assay, conditions: second compound 0.1 µM; first compound 0.01 µM; hits give low values

`CCN1CCN(Cc2ccc(Nc3ncc(F)c(-c4cc(F)c5nc(C)n(C(C)C)c5c4)n3)nc2)CC1` + C=CC(=O)N1CCN(c2nc(OCC3CCCN3C)nc3c(F)c(-c4nc(N)cc(C)c4C(F)(F)F)c(Cl)cc23)C(C)C1 showed a viability, T/C of 103%.

same assay, conditions: second compound 0.1 µM; first compound 0.0316 µM; hits give low values

Compared with `CC1(O)CCCC1n1c(=O)c(C(F)F)cc2cnc(NC3CCN(S(C)(=O)=O)CC3)nc21` (stereo unspecified) + C=CC(=O)N1CCN(c2nc(OCC3CCCN3C)nc3c(F)c(-c4nc(N)cc(C)c4C(F)(F)F)c(Cl)cc23)C(C)C1, `Cc1nc(N2CCC3(CC2)COC(C)C3N)c(CO)nc1Sc1ccnc(N)c1Cl` (stereo unspecified) + C=CC(=O)N1CCN(c2nc(OCC3CCCN3C)nc3c(F)c(-c4nc(N)cc(C)c4C(F)(F)F)c(Cl)cc23)C(C)C1 is lower in viability, T/C: 135% for the first, 101% for the second.

First: CCC(CC)c1cc(NC2CCC(N)C2)n2nccc2n1 (stereo unspecified) + C=CC(=O)N1CCN(c2nc(OCC3CCCN3C)nc3c(F)c(-c4nc(N)cc(C)c4C(F)(F)F)c(Cl)cc23)C(C)C1
Second: NC1c2ccccc2OC12CCN(c1cnc3c(N4CCCc5ncccc54)n[nH]c3n1)CC2 (stereo unspecified) + C=CC(=O)N1CCN(c2nc(OCC3CCCN3C)nc3c(F)c(-c4nc(N)cc(C)c4C(F)(F)F)c(Cl)cc23)C(C)C1
The viability, T/C of the first is higher: 139% for the first, 73% for the second.

`CCN1CCN(Cc2ccc(Nc3ncc(F)c(-c4cc(F)c5nc(C)n(C(C)C)c5c4)n3)nc2)CC1` + C=CC(=O)N1CCN(c2nc(OCC3CCCN3C)nc3c(F)c(-c4nc(N)cc(C)c4C(F)(F)F)c(Cl)cc23)C(C)C1 was tested, and the viability, T/C was 115%.

same assay, conditions: second compound 0.1 µM; first compound 0.1 µM; hits give low values

Compared with `CC1(O)CCCC1n1c(=O)c(C(F)F)cc2cnc(NC3CCN(S(C)(=O)=O)CC3)nc21` (stereo unspecified) + C=CC(=O)N1CCN(c2nc(OCC3CCCN3C)nc3c(F)c(-c4nc(N)cc(C)c4C(F)(F)F)c(Cl)cc23)C(C)C1, `Cc1nc(N2CCC3(CC2)COC(C)C3N)c(CO)nc1Sc1ccnc(N)c1Cl` (stereo unspecified) + C=CC(=O)N1CCN(c2nc(OCC3CCCN3C)nc3c(F)c(-c4nc(N)cc(C)c4C(F)(F)F)c(Cl)cc23)C(C)C1 is lower in viability, T/C: 85.2% for the first, 78.5% for the second.

First: CCC(CC)c1cc(NC2CCC(N)C2)n2nccc2n1 (stereo unspecified) + C=CC(=O)N1CCN(c2nc(OCC3CCCN3C)nc3c(F)c(-c4nc(N)cc(C)c4C(F)(F)F)c(Cl)cc23)C(C)C1
Second: CCN1CCN(Cc2ccc(Nc3ncc(F)c(-c4cc(F)c5nc(C)n(C(C)C)c5c4)n3)nc2)CC1 + C=CC(=O)N1CCN(c2nc(OCC3CCCN3C)nc3c(F)c(-c4nc(N)cc(C)c4C(F)(F)F)c(Cl)cc23)C(C)C1
The viability, T/C of the first is lower: 106% for the first, 110% for the second.
